Experimental data reported in article PMC9412414, “A Study on Repositioning Nalidixic Acid via Lanthanide Complexation: Synthesis, Characterization, Cytotoxicity and DNA/Protein Binding Studies” (Pharmaceuticals, 2022).

What was measured:
[1] = system: LoVo (human colorectal adenocarcinoma) cell line; experiment: MTS cytotoxicity assay, LoVo cell line; type: cell-based; details: 48 h of incubation
Protocol: (§1) LoVo, MDA-MB-231 and HUVEC human cell lines were purchased from American Type Culture Collection (ATCC). Cells were routinely maintained in culture either in culture flasks or seeded in plates, using Dulbecco’s modified Eagle medium/nutrient mixture F-12 (DMEM:F12) medium supplemented with […], 10% fetal calf serum (Sigma Aldrich, St. Louis, MO, USA), 100 units/mL penicillin, 100 μg/mL streptomycin and incubated at 37 °C in 5% CO2 humidified atmosphere.
(§2) Cytotoxicity studies were performed in 96-well microtiter plates with flat bottoms (Falcon, Teterboro, NJ, USA) using the CellTiter 96 Aqueous One Solution Cell Proliferation Assay (Promega, Madison, WI, USA), an MTS-based colorimetric assay. Metabolically active cells have the ability to reduce MTS [3-(4,5-dimethylthiazol-2-yl)-5-(3-carboxymethoxyphenyl)-2-(4-sulfophenyl)-2H-tetrazolium, inner salt], a yellow tetrazolium salt, to a colored formazan that is soluble in the culture medium. Briefly, 15 × 10^3 cells per well were cultured in 100 µL culture medium. After 24 h, adherent cells were treated with different concentrations of the studied compounds, as well as adriamycin (Adr) and cisplatin (Cis-Pt), used as positive controls for 24 h and 48 h, respectively. Each well was then filled with 20 µL of reagent containing MTS and PES (phenazine ethosulfate, a cationic dye with excellent chemical stability that binds to MTS and produces a stable solution). The resulting formazan was determined using a Tecan GENios Spectrophotometer (Tecan US, Durham, NC, USA) by measuring the absorbance at λ = 492 nm after incubation for 4 h at 37 °C with moderate agitation every 15 min. The cytotoxicity tests were performed in triplicate, with results reported as mean values with standard deviations (SD). The cytotoxicity of DMSO was also investigated under the same conditions, and no harmful effect was found at doses less than 1%.
(§3) Data were expressed as cell viability by comparing with untreated cells considered 100% viable, using the following formula:(1) Cell viability (%)=absorbance of treated cells−absorbance of culture medium/absorbance of untreated cells−absorbance of culture medium

[2] = system: HUVEC (human umbilical vein endothelial cells); experiment: MTS cytotoxicity assay, HUVEC normal cell line; type: cell-based; details: 24 h of incubation
Protocol: as §1, §2, §3

[3] = system: EB–DNA system (CT-DNA); experiment: Competitive binding assay with ethidium bromide (EB) through fluorescence spectroscopy; design: species or system calf; details: EB 2 µM, CT-DNA 10 µM, compound 0–40 µM
Protocol: The fluorescence spectra were recorded using 1.6 mL samples containing 10 µM CT-DNA, 2 µM EB, and increasing amounts (0–40 µM with an increment of 5 µM) of tested compounds; the samples were prepared by keeping the components in contact for 10 min at room temperature, under continuous stirring and in the dark. The excitation wavelength was 500 nm, and the spectra were recorded between the wavelengths of 520 and 800 nm. A Jasco FP 6500 fluorometer and quartz cells with a 1 cm route length were employed. The classical Stern–Volmer equation (Equation (3)) was used to interpret the obtained data:(3) F0/F=1+KSV·[Q] F0 and F are the fluorescence intensities of the EB–DNA samples in the absence and presence of the tested compounds, respectively; KSV is the Stern–Volmer constant, which was computed as the slope from the plot of F0/F vs. [Q], where [Q] is the chemical concentration.
The binding ratio was plotted against the logarithm of the concentration in comparison with a control sample exposed solely to DMSO. (4) y=A1+(A2−A1)×x^n/K50^n+x^n
For fitting data points, the modified Hill function with offset (Origin®) was used: where y represents the binding ratio (F/F0), x represents the concentration, A1 represents the minimum of y values, A2 represents the maximum of y values, K50 represents the concentration corresponding to 50% binding or the half maximum binding constant, and n represents the Hill coefficient.

[4] = target: T1, apotransferrin (apo-Tf) (Homo sapiens, UniProt P02787); experiment: Apo-Tf fluorescence quenching binding study; details: for Ka (association binding constant), Apo-Tf / n1 (Number of Binding Sites), Apo-Tf / Kd / fa (fraction of fluorophore accessible to the quencher), Apo-Tf / Kq (bimolecular quenching constant), Apo-Tf / n2 (Hill Coefficient), Apo-Tf: 298 K; for Kd: read-out: Kd (dissociation constant), Apo-Tf; for fa (fraction of fluorophore accessible to the quencher), Apo-Tf / Ksv* (Stern–Volmer quenching constant), Apo-Tf: compound 0–8 µM; for Ksv* (Stern–Volmer quenching constant), Apo-Tf: Tris-HCl pH 7.4, 298 K; for Kq (bimolecular quenching constant), Apo-Tf: from Ksv* with τ0 = 10^−8 s
T1 construct: purchased Sigma-Aldrich Chemical Co. (Schnelldorf, Germany)
T1 sequence (P02787 20-698): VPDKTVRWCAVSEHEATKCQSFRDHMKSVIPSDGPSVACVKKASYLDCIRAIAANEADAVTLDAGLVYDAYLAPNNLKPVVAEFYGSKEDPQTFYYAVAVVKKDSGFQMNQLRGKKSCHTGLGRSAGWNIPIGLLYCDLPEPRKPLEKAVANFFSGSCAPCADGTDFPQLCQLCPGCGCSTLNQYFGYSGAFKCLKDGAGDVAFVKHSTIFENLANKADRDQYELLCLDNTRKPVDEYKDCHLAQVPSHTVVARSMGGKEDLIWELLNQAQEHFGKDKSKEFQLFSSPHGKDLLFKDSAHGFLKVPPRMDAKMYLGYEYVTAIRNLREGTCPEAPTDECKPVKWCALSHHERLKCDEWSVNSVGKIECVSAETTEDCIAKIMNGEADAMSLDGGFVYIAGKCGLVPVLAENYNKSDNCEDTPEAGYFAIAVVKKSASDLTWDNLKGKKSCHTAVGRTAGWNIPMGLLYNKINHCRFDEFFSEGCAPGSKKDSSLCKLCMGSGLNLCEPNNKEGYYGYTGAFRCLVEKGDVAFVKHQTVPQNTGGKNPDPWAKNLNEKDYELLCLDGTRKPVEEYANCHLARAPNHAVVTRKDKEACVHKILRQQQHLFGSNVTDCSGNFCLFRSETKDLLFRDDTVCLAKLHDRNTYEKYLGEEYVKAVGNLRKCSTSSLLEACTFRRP
Protocol: (§4) Using a Jasco FP 6500 spectrofluorometer (Jasco, Tokyo, Japan) and quartz cells with a 1 cm path length, the fluorescence spectra of HSA and apo-Tf were recorded in the presence and absence of the examined substances. The 2.5 mL samples containing 2.5 µM HSA or 1 µM apo-Tf were titrated by adding 5 µL of the tested substance at a time, a volume that corresponded to a 1 µM increase in concentration. The concentration range used for these experiments varied from 0 to 8 µM. The relevant spectra were collected in the emission domains of 300–500 nm (HSA) and 305–500 nm (apo-Tf) after 3 min of continuous stirring at room temperature, using excitation wavelengths of 280 nm (HSA) and 295 nm (apo-Tf).
(§5) Experiments were conducted in a pH = 7.4 Tris-HCl buffer (5 mM Tris-HCl/50 mM NaCl for HSA and 5 mM Tris-HCl/50 mM NaCl/25 mM NaHCO3 for apo-Tf).
(§6) The following modified Stern–Volmer equation has been used to calculate the Stern–Volmer constant, which will be denoted as KSV* in order to differentiate it from the Stern–Volmer constant calculated for the DNA binding experiments:(5) F0/F0−F=1/faKsv*[Q]+1/fa where F0 and F are the fluorescence intensities in the absence and presence of the tested compounds, fa is the fraction of fluorophore accessible to the quencher (the tested compounds), [Q] is the quencher concentration, and KSV* (M^−1) is the Stern–Volmer constant; the plot of F0/(F0 − F) against 1/[Q] yields KSV as the slope and fa as the y intercept.
(§7) Subsequently, the bimolecular quenching rate constant was obtained by using Equation (6):(6) Ksv^*=Kqτ0
(§8) Kq (M^−1·s^−1) is the bimolecular quenching rate constant and τ0 is the fluorophore’s lifespan in the absence of the investigated chemicals (10^−8 s). The value of Kq can be used to assess whether the quenching phenomena have an underlying static or dynamic mechanism.
(§9) Using the following equation, the affinity constant (Ka) and the number of binding sites (n) have been calculated: (7) lgF0−F/F=lgKa+nlg[Q]
(§10) The binding affinity, Kd, can be calculated using the quadratic function below:(8) F0−F/F0−Fb=[P]t+[Q]+Kd−([P]t+[Q]+Kd)^2−4[P]t[Q]/2[P]t where F and F0 are the fluorescence intensities of the protein in the presence and absence of the quencher, respectively, Fb is the fluorescence of a fully bound protein–quencher, [P]t is the total concentration of the protein, and [Q] is the concentration of the added quencher. Each binding isotherm was plotted against the total quencher concentration in solution as a function of bound to free protein (F/F0).
(§11) The isotherms were then fitted using the nonlinear regression function below:(9) F/F0= F1+(F2−F1)Kdn/Kdn+[Q]^n where n represents the Hill coefficient, F1 and F2 are the horizontal and vertical asymptotes, respectively. The Kd in Equation (9) is derived from the quadratic binding function (Equation (8)).
(§12) Data were collected in triplicate, averaged, and expressed as mean value ± standard deviation (SD). All graph fitting models were defined and built using OriginPro® 2018.

[5] = target: T2, human serum albumin (HSA) (Homo sapiens, UniProt P02768); experiment: HSA fluorescence quenching binding study; details: for Ka (association binding constant), HSA / n1 (Number of Binding Sites), HSA / n2 (Hill Coefficient), HSA / Kd / fa (fraction of fluorophore accessible to the quencher), HSA / Ksv* (Stern–Volmer quenching constant), HSA: HSA 2.5 µM; for Ka (association binding constant), HSA / n1 (Number of Binding Sites), HSA / n2 (Hill Coefficient), HSA / Kd / fa (fraction of fluorophore accessible to the quencher), HSA / Kq (bimolecular quenching constant), HSA: 298 K; for Kd: read-out: Kd (dissociation constant), HSA; for fa (fraction of fluorophore accessible to the quencher), HSA / Ksv* (Stern–Volmer quenching constant), HSA: compound 0–8 µM; for Ksv* (Stern–Volmer quenching constant), HSA: Tris-HCl pH 7.4, 298 K; for Kq (bimolecular quenching constant), HSA: from Ksv* with τ0 = 10^−8 s
T2 construct: purchased Sigma-Aldrich Chemical Co. (Schnelldorf, Germany)
T2 sequence (P02768 25-609): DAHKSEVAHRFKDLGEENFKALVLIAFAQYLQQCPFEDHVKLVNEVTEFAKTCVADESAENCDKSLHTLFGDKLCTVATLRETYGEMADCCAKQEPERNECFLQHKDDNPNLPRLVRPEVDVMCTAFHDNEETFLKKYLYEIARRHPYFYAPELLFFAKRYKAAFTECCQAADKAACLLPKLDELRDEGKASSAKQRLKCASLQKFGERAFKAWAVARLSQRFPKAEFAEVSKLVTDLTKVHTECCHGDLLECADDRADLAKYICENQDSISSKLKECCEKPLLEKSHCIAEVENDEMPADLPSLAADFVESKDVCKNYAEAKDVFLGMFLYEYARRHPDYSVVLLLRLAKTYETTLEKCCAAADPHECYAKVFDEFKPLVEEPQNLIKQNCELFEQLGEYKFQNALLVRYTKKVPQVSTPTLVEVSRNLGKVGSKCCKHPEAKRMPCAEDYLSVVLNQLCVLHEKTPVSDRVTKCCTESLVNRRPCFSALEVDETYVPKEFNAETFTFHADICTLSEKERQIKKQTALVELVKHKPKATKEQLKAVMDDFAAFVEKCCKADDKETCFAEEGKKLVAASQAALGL
Protocol: as §4, §5, §6, §7, §8, §9, §10, §11, §12

Molecule	IC50 [1]	IC50 (μM) LoVo [1]	IC50 [2]	EB Displacement Assay K50 (half maximum binding constant) [3]	KSV, Stern–Volmer quenching constant (EB–DNA) [3]	Ka (association binding constant), Apo-Tf ([4]; apo-Tf 1 µM)	n1 (Number of Binding Sites), Apo-Tf ([4]; apo-Tf 1 µM)	Kd ([4]; apo-Tf 1 µM)	fa (fraction of fluorophore accessible to the quencher), Apo-Tf ([4]; apo-Tf 1 µM)	Ksv* (Stern–Volmer quenching constant), Apo-Tf ([4]; apo-Tf 1 µM)	Kq (bimolecular quenching constant), Apo-Tf [4]	Ka (association binding constant), HSA [5]	n1 (Number of Binding Sites), HSA [5]	n2 (Hill Coefficient), HSA [5]	Kd [5]	fa (fraction of fluorophore accessible to the quencher), HSA [5]	Ksv* (Stern–Volmer quenching constant), HSA [5]	Kq (bimolecular quenching constant), HSA [5]	n2 (Hill Coefficient), Apo-Tf ([4]; apo-Tf 1 µM)	quenching effect on apo-Tf fluorescence peak ([4]; apo-Tf 1 µM, compound up to 8 µM)
CCn1cc(C(=O)[O-])c(=O)c2ccc(C)nc21.CCn1cc(C(=O)[O-])c(=O)c2ccc(C)nc21.O.[OH-].[Tb+3] [Tb(nal)2, Tb(C12H11N2O3)2(OH)(H2O)·1.5H2O]	> 200 µM	not toxic	> 200 µM	34.69 ± 11.18 µM	9.14 ± 0.16 M^−1 (×10^3)	(0.32 ± 0.08) × 10^4 M^−1	0.71 ± 0.02	8.01 ± 4.3 µM	0.65 ± 0.02	(2.23 ± 0.15) × 10^5 M^−1	2.23e+13 M⁻¹ s⁻¹	(11.52 ± 2.87) × 10^5 M^−1	1.12 ± 0.02	1.52 ± 0.09	3.99 ± 0.14 µM	1.13 ± 0.02	(1.92 ± 0.08) × 10^5 M^−1	1.92e+13 M⁻¹ s⁻¹	–	–
Eu(C12H11N2O3)3(H2O)2·2.5H2O [Eu(nal)3]	26.9 ± 5.72 µM	–	> 200 µM	30.96 ± 10.85 µM	9.62 ± 0.10 M^−1 (×10^3)	(2.25 ± 1.01) × 10^4 M^−1	0.84 ± 0.03	3.85 ± 0.29 µM	0.80 ± 0.02	(2.21 ± 0.13) × 10^5 M^−1	2.21e+13 M⁻¹ s⁻¹	(21.59 ± 2.04) × 10^5 M^−1	1.13 ± 0.00	1.17 ± 0.27	2.67 ± 0.21 µM	1.13 ± 0.01	(2.89 ± 0.11) × 10^5 M^−1	2.89e+13 M⁻¹ s⁻¹	1.58 ± 0.23	48%
Gd(C12H11N2O3)3(H2O)2·1.5H2O [Gd(nal)3]	28.4 ± 7.95 µM	–	58.4 ± 29.3 µM	31.88 ± 7.73 µM	9.86 ± 0.19 M^−1 (×10^3)	(2.63 ± 0.39) × 10^4 M^−1	0.87 ± 0.01	5.86 ± 0.72 µM	0.82 ± 0.02	(1.78 ± 0.07) × 10^5 M^−1	1.78e+13 M⁻¹ s⁻¹	(19.61 ± 1.83) × 10^5 M^−1	1.14 ± 0.01	1.35 ± 0.12	3.27 ± 0.11 µM	1.10 ± 0.00	(2.69 ± 0.05) × 10^5 M^−1	2.69e+13 M⁻¹ s⁻¹	1.22 ± 0.12	–
